The values below are quoted from earlier work in US20260035355A1, “COMPOUND, PHARMACEUTICAL COMPOSITION COMPRISING SAME, AND USE THEREOF” (SHENZHEN ZHONGGE BIOLOGICAL TECHNOLOGY CO., LTD., priority 2022, published 2026).

Series [1] relates to model animals. To be noted: oral administration for three days; cited from earlier work.
Series [2] concerns healthy participants. To be noted: Phase 1, healthy participants; cited from earlier work.
Series [3] concerns mouse models. To be noted: cited from earlier work.

On to `NC(CO)(CO)CO.O=C(COc1ccc(Cl)c(F)c1)NC12CCC(NC(=O)COc3ccc(Cl)c(F)c3)(CC1)[C@@H](OCOP(=O)([O-])O)C2.[Na+]` [ABBV-CLS-7262], for which the “brain function (in words)” value in series [1] is recorded as “restored to youthful levels”. On to `O=C(COc1ccc(Cl)cc1)NC12CC(c3nnc([C@H]4C[C@@H](OC(F)(F)F)C4)o3)(C1)C2` [DNL-343], for which the “safety and tolerability (in words)” value in series [2] is “demonstrated its safety and tolerability”. For `O=C(COc1ccc(Cl)cc1)NC1CCC(NC(=O)COc2ccc(Cl)cc2)CC1` (stereo not drawn) [ISRIB], in series [3], the “long-term memory (in words)” value is on record as “improve long-term memory”.
